In ChEMBL document CHEMBL5329208 (RSC Med Chem, 2023):
Calls of active or inactive are those of the source. No cut-off for these calls is given here.

Columns and labels:
[1] = Cytotoxicity against human HePAD38 cells assessed as reduction in cell viability by CCK-8 assay; format: toxicity, cell-based
[2] = Selectivity index, ratio of CC50 for cytotoxicity against human HePAD38 cells assessed as reduction in cell viability to EC50 for antiviral activity against HBV infected human HePAD38 cells assessed as reduction of HBV DNA level; format: toxicity, cell-based; conditions: read-out: Ratio CC50/EC50
Hepatitis B virus [3] = assay: Antiviral activity against HBV infected human HePAD38 cells assessed as reduction of HBV DNA level with compound replacement for every 3 days and measured on day 6 by qPCR analysis; format: functional, organism-based
[4] = Metabolic stability in human liver assessed as intrinsic clearance preincubated for 10 mins followed by NADPH addition and measured after 60 mins by LC-MS/MS analysis; format: ADME, tissue-based; conditions: time 70 min, read-out: CLH
[5] = Metabolic stability in human liver microsome assessed as intrinsic clearance preincubated for 10 mins followed by NADPH addition and measured after 60 mins by LC-MS/MS analysis; format: ADME; conditions: liver microsomes, time 70 min, read-out: CLH
CYP1A2 = target: T1, CYP1A2 (Homo sapiens, UniProt P05177); assay: Inhibition of CYP1A2 (unknown origin) at 10 uM using phenacetin as substrate incubated for 10 mins in presence of NADPH by LC-MS/MS analysis relative to control; format: ADME; conditions: probe phenacetin
T1 sequence (P05177 whole entry): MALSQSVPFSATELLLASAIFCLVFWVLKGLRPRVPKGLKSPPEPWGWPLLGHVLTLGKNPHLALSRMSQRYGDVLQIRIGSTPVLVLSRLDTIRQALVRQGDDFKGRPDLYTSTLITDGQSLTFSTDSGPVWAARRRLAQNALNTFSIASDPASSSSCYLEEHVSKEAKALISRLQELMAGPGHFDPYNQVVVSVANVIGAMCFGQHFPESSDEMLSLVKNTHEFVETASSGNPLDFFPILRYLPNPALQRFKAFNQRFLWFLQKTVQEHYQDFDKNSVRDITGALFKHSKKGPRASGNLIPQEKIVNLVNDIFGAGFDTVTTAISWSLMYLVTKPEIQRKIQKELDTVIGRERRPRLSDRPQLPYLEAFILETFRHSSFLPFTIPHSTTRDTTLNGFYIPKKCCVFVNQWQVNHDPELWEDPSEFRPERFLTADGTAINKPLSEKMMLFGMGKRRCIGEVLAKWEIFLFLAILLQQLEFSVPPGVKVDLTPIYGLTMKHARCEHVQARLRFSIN

CYP2C9 = CYP2C9 (Homo sapiens, UniProt P11712); assay: Inhibition of CYP2C9 (unknown origin) at 10 uM using diclofenac as substrate incubated for 10 mins in presence of NADPH by LC-MS/MS analysis relative to control; format: ADME; conditions: probe diclofenac
Sequence of CYP2C9 (P11712 whole entry): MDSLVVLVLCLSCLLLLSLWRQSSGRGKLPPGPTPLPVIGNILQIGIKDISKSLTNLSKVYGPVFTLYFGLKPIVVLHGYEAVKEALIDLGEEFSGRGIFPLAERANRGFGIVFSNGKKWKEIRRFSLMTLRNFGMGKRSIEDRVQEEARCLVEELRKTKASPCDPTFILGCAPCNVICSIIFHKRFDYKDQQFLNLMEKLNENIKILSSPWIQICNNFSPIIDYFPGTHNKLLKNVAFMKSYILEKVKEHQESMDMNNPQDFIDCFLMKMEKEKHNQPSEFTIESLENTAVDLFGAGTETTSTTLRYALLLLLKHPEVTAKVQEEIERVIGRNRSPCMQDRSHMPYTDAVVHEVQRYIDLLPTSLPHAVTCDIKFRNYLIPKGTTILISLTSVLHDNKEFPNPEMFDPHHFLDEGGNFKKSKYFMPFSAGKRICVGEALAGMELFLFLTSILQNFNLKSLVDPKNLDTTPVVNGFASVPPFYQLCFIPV

CYP2D6 = CYP2D6 (Homo sapiens, UniProt P10635); assay: Inhibition of CYP2D6 (unknown origin) at 10 uM using dextromethorphan as substrate incubated for 10 mins in presence of NADPH by LC-MS/MS analysis relative to control; format: ADME; conditions: probe dextromethorphan
Sequence of CYP2D6 (P10635 whole entry): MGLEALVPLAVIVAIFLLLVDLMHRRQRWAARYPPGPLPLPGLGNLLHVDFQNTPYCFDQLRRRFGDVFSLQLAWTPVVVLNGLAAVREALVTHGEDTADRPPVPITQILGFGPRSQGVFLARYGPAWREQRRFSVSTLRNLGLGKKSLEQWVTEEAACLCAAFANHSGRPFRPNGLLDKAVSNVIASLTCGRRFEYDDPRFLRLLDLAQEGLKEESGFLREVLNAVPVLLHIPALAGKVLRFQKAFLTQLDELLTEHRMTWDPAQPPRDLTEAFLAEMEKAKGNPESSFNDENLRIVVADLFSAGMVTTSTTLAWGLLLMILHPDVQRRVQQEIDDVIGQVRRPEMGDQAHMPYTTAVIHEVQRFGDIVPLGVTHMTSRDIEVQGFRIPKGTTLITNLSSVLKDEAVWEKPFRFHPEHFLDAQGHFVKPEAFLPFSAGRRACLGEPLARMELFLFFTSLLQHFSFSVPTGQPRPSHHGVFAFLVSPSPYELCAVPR

Hepatitis B virus [6] = assay: Antiviral activity against HBV infected human HePAD38 cells assessed as reduction in intracellular capsid content at 1 uM incubated for 6 days; format: functional, organism-based; conditions: time 6.0 day
[7] = Metabolic stability in human liver microsome assessed as half life preincubated for 10 mins followed by NADPH addition and measured after 60 mins by LC-MS/MS analysis; format: ADME; conditions: liver microsomes, time 70 min
CYP2C19 = CYP2C19 (Homo sapiens, UniProt P33261); assay: Inhibition of CYP2C19 (unknown origin) at 10 uM using s-mephenytoin as substrate incubated for 10 mins in presence of NADPH by LC-MS/MS analysis relative to control; format: ADME; conditions: probe S-mephenytoin
Sequence of CYP2C19 (P33261 whole entry): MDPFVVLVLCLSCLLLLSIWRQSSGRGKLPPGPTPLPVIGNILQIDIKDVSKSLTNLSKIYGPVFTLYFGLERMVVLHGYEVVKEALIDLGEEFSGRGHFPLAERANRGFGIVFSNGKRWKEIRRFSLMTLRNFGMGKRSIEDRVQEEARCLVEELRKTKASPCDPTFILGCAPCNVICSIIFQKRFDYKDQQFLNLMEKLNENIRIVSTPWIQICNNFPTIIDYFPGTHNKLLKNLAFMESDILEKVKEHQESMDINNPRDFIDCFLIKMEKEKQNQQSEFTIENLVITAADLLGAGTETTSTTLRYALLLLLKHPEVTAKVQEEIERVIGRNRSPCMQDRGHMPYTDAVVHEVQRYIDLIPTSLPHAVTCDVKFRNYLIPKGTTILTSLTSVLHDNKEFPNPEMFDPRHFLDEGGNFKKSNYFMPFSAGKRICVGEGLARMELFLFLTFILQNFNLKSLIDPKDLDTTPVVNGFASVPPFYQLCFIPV

hERG (KCNH2) = hERG (KCNH2) (Homo sapiens, UniProt Q12809); assay: Inhibition of hERG expressed in HEK293 cells at 1 uM at holding potential of -80 mV by whole cell patch clamp assay relative to control; format: toxicity, cell-based; conditions: HEK293 cells expressing hERG
Sequence of hERG (KCNH2) (Q12809 whole entry): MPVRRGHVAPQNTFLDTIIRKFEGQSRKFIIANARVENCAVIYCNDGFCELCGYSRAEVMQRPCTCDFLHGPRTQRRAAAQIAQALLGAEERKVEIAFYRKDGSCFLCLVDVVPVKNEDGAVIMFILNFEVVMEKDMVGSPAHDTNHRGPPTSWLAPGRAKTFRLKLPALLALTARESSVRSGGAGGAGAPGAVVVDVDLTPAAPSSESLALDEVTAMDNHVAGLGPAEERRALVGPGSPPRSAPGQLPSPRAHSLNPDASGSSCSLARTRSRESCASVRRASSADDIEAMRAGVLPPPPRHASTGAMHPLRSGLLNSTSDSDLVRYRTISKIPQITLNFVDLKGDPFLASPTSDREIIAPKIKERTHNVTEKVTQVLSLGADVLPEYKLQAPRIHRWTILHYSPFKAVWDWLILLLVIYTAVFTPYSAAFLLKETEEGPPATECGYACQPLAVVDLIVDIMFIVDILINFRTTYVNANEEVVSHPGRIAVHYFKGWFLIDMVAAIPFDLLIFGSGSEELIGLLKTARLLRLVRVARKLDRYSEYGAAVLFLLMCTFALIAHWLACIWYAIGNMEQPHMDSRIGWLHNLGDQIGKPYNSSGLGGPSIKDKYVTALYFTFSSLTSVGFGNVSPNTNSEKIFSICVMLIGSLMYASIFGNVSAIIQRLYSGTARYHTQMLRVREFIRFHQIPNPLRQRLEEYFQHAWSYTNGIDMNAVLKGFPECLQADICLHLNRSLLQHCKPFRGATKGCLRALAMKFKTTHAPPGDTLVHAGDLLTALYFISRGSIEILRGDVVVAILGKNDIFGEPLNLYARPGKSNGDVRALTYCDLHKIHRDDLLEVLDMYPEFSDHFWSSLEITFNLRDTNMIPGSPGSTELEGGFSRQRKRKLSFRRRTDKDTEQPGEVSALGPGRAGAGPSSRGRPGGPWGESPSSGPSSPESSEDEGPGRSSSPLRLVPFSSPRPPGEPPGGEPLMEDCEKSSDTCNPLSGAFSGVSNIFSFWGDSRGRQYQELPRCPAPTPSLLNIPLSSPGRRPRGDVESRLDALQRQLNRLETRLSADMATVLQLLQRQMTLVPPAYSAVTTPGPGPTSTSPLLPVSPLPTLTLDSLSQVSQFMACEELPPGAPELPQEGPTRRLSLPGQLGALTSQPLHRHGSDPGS

SMILES	CC50 [1]	selectivity ratio [2]	EC50 (Hepatitis B virus [3])	also measured
CCOC(=O)C1=C(CN2CCN(C(C(=O)O)C3=CCCCC3)CC2)NC(c2nccs2)=NC1c1ccc(F)cc1Br (configuration not stated)	29.2 µM	34.8	0.84 µM	
CCOC(=O)C1=C(CN2CCN(C(C(=O)O)c3ccccc3)CC2)NC(c2nccs2)=NC1c1ccc(F)cc1Br (configuration not stated)	> 50 µM	> 18.6	2.69 µM	
CCOC(=O)C1=C(CN2CCN(C(C(=O)O)c3ccc(Br)cc3)CC2)NC(c2nccs2)=NC1c1ccc(F)cc1Br (configuration not stated)	22.4 µM	18	1.24 µM	
CCOC(=O)C1=C(CN2CCN(C(C(=O)O)c3cccc4ccccc34)CC2)NC(c2nccs2)=NC1c1ccc(F)cc1Br (configuration not stated)	22.4 µM	26.3	0.85 µM	
CCOC(=O)C1=C(CN2CCN(C(C(=O)O)c3cccc(F)c3)CC2)NC(c2nccs2)=NC1c1ccc(F)cc1Br (configuration not stated)	22.4 µM	< 2.2	> 10 µM	
O=C(O)Cc1ccccc1Nc1c(Cl)cccc1Cl [DICLOFENAC]				CLint scaled [4]: 212 mL/min/kg; microsomal CLint [5]: 235 µL/min/mg
CCOC(=O)C1=C(CN2CCN(C(C(=O)O)c3ccc(Cl)cc3)CC2)NC(c2nccs2)=NC1c1ccc(F)cc1Br (configuration not stated)	22.4 µM	57.3	0.39 µM	
CCOC(=O)C1=C(CN2CCN(C(C(=O)O)c3cccc(C(F)F)c3)CC2)NC(c2nccs2)=NC1c1ccc(F)cc1Br (configuration not stated)	22.4 µM	< 2.2	> 10 µM	
CCOC(=O)C1=C(CN2CCN(C(C(=O)O)c3ccc4occc4c3)CC2)NC(c2nccs2)=NC1c1ccc(F)cc1Br (configuration not stated)	22.4 µM	9.8	2.28 µM	
CCOC(=O)C1=C(CN2CCN(C(C(=O)O)c3ccc(F)cc3)CC2)NC(c2nccs2)=NC1c1ccc(F)cc1Br (configuration not stated)	29.2 µM	< 2.9	> 10 µM	
CCOC(=O)C1=C(CN2CCN(C(C(=O)O)c3ccccc3C#N)CC2)NC(c2nccs2)=NC1c1ccc(F)cc1Br (configuration not stated)	50 µM	9.3	5.36 µM	
O=c1cc(-c2ccccc2)oc2c1ccc1ccccc12 [ALPHA-NAPHTHOFLAVONE]				inhibition at 10 min, 10 µM (CYP1A2): 88.7%
Nc1ccc(S(=O)(=O)Nc2ccnn2-c2ccccc2)cc1 [SULFAPHENAZOLE]				inhibition at 10 min, 10 µM (CYP2C9): 87.1%
C#Cc1cccc(C(C(=O)O)N2CCN(CC3=C(C(=O)OCC)C(c4ccc(F)cc4Br)N=C(c4nccs4)N3)CC2)c1 (configuration not stated)	22.4 µM	< 2.2	> 10 µM	
CCOC(=O)C1=C(CN2CCN(C(C(=O)O)c3cccc(O)c3)CC2)NC(c2nccs2)=NC1c1ccc(F)cc1Br (configuration not stated)	> 50 µM	> 21	2.38 µM	
CCOC(=O)C1=C(CN2CCN(C(C(=O)O)c3ccccc3C)CC2)NC(c2nccs2)=NC1c1ccc(F)cc1Br (configuration not stated)	22.4 µM	30.2	0.58 µM	
CCOC(=O)C1=C(CN2CCN(C(C(=O)O)c3ccc(O)cc3)CC2)NC(c2nccs2)=NC1c1ccc(F)cc1Br (configuration not stated)	22.4 µM	3.5	6.3 µM	
CCOC(=O)C1=C(CN2CCN(C(C(=O)O)c3cccc(C(F)(F)F)c3)CC2)NC(c2nccs2)=NC1c1ccc(F)cc1Br (configuration not stated)	22.4 µM	2.2	9.98 µM	
CCOC(=O)C1=C(CN2CCN(C(C(=O)O)c3cccc(C=O)c3)CC2)NC(c2nccs2)=NC1c1ccc(F)cc1Br (configuration not stated)	> 50 µM	2440	> 10 µM	
CCOC(=O)C1=C(CN2CCN(C(C(=O)O)c3ccc(C)cc3)CC2)NC(c2nccs2)=NC1c1ccc(F)cc1Br (configuration not stated)	22.4 µM	2.6	8.48 µM	

SMILES	CC50 [1]	selectivity ratio [2]	EC50 (Hepatitis B virus [3])	also measured
CCOC(=O)C1=C(CN2CCN(C(C(=O)O)c3ccc4c(c3)OCCO4)CC2)NC(c2nccs2)=NC1c1ccc(F)cc1Br (configuration not stated)	22.4 µM	508	0.044 µM	
CCOC(=O)C1=C(CN2CCN(C(C(=O)O)c3ccc(OC)c(OC)c3)CC2)NC(c2nccs2)=NC1c1ccc(F)cc1Br (configuration not stated)	> 50 µM		> 10 µM	
CCOC(=O)C1=C(CN2CCN(C(C(=O)O)c3cccc(C#N)c3)CC2)NC(c2nccs2)=NC1c1ccc(F)cc1Br (configuration not stated)	22.4 µM	< 2.2	> 10 µM	
C=C[C@H]1C[N@@]2CC[C@H]1C[C@@H]2[C@@H](O)c1ccnc2ccc(OC)cc12 [QUINIDINE]				inhibition at 10 min, 10 µM (CYP2D6): 95.6%
CCOC(=O)C1=C(CN2CCN(C(C(=O)O)c3ccc(C#N)cc3)CC2)NC(c2nccs2)=NC1c1ccc(F)cc1Br (configuration not stated)	29.2 µM	6.8	4.31 µM	
CCOC(=O)C1=C(CN2CCN(C(C(=O)O)c3ccc(C=O)cc3)CC2)NC(c2nccs2)=NC1c1ccc(F)cc1Br (configuration not stated)	> 50 µM	> 12.9	3.87 µM	
CCOC(=O)C1=C(CN2CCN(C(C(=O)O)c3cccc(C)c3)CC2)NC(c2nccs2)=NC1c1ccc(F)cc1Br (configuration not stated)	22.4 µM	8.9	2.52 µM	
CCOC(=O)C1=C(CN2CCN(C(C(=O)O)c3ccc4c(c3)OCO4)CC2)NC(c2nccs2)=NC1c1ccc(F)cc1Br (configuration not stated)	22.4 µM	9.1	2.46 µM	
Nc1ccn([C@@H]2CS[C@H](CO)O2)c(=O)n1 [LAMIVUDINE]	> 50 µM		0.09 µM	Activity (Hepatitis B virus [6]): inactive
C[C@]12CC[C@H]3[C@@H](CCC4=CC(=O)CC[C@@]43C)[C@@H]1CC[C@@H]2O [TESTOSTERONE]				CLint scaled [4]: 117 mL/min/kg; half-life [7]: 10.7 min; microsomal CLint [5]: 130 µL/min/mg
CCOC(=O)C1=C(CN2CCN(C(C(=O)O)C3=CCCC3)CC2)NC(c2nccs2)=NC1c1ccc(F)cc1Br (configuration not stated)	> 50 µM	> 100	0.5 µM	
CCOC(=O)C1=C(CN2CCN(C(C(=O)O)c3ccccc3OC)CC2)NC(c2nccs2)=NC1c1ccc(F)cc1Br (configuration not stated)	50 µM	21.3	2.35 µM	
CCOC(=O)C1=C(CN2CCN(C(C(=O)O)c3ccoc3)CC2)NC(c2nccs2)=NC1c1ccc(F)cc1Br (configuration not stated)	> 50 µM		> 10 µM	
CC[C@@]1(c2ccccc2)NC(=O)N(Cc2ccccc2)C1=O				inhibition at 10 min, 10 µM (CYP2C19): 89.4%
CCOC(=O)C1=C(CN2CCN(C(C(=O)O)c3ccc(CC)cc3)CC2)NC(c2nccs2)=NC1c1ccc(F)cc1Br (configuration not stated)	22.4 µM	41.4	0.46 µM	
CCOC(=O)C1=C(CN2CCN(C(C(=O)O)c3ccsc3)CC2)NC(c2nccs2)=NC1c1ccc(F)cc1Br (configuration not stated)	> 50 µM	962	0.07 µM	
CCOC(=O)C1=C(CN2CCN(C(C(=O)O)c3ccccc3O)CC2)NC(c2nccs2)=NC1c1ccc(F)cc1Br (configuration not stated)	22.4 µM	3.4	6.48 µM	
COc1cc(N)c(Cl)cc1C(=O)NC1CCN(CCCOc2ccc(F)cc2)CC1OC (configuration not stated) [CISAPRIDE]				inhibition at 1 µM (hERG (KCNH2)): 96.7%
C=Cc1ccc(C(C(=O)O)N2CCN(CC3=C(C(=O)OCC)C(c4ccc(F)cc4Br)N=C(c4nccs4)N3)CC2)cc1 (configuration not stated)	22.4 µM	5.9	3.78 µM	
CCOC(=O)C1=C(CN2CCN(C(C(=O)O)c3ccc(OC)cc3)CC2)NC(c2nccs2)=NC1c1ccc(F)cc1Br (configuration not stated)	29.2 µM	< 2.9	> 10 µM	
